Assays:
[1] = test system: primary screen strain (yeast with hRpn11, UBP6 deleted); assay: DMSO tolerance of the primary screen yeast strain, growth in microtiter plates; type: cell-based, Saccharomyces cerevisiae; conditions: primary screen strain (FIG. 4A); concentrations of DMSO up to 1%; cell density monitored over 24 hours; sextuplicate
Source text: (§1) In baker's yeast (S. cerevisiae), deletion of the endogenous yeast Rpn11 gene is lethal, but inhibition of Rpn11 deubiquitinating activity is not. Inhibition of Rpn11 activity is lethal only when a second deubiquitinase, UBP6, is deleted (FIG. 2A). Importantly, this synthetic lethal relationship is maintained in yeast harboring hRpn11 (FIG. 3). Thus, a selective inhibitor of human Rpn11 would be lethal in the hRpn11 strain lacking UBP6 (primary screen strain), but nontoxic in a strain containing UBP6 and harboring inactivating point mutations in hRpn11 (counterscreening strain) (FIG. 2B). By measuring cell growth in the presence of potential inhibitors using any commercially available plate reader, a high throughput cell-based screen for compounds selectively inhibiting hRpn11 can be enacted.
(§2) Many high throughput screens include a library of chemical compounds having different solubility in different solvents. A common solvent used to solve this issue is dimethyl sulfoxide (“DMSO”). However, DMSO can be toxic to biological cells. Thus, it is advantageous if the biological cell is resistant to levels of DMSO which are used to dissolve compounds in a library. […]
(§3) In a fourth example, yeast strains were evaluated for tolerance of a commonly used solvent in high throughput screens. […] Cell density was monitored over 24 hours as an indicator of cell growth.

[2] = test system: counterscreen strain (yeast with UBP6 intact); assay: DMSO tolerance of the counterscreen yeast strain, growth in microtiter plates; type: cell-based, Saccharomyces cerevisiae; conditions: counterscreen strain (FIG. 4B); concentrations of DMSO up to 1%; cell density monitored over 24 hours; sextuplicate
Source text: as §1, §2, §3

C[S+](C)[O-] [DMSO, dimethylsulfoxide]
differences in growth rate, time to saturation, or saturation cell density [1]: No statistical differences
differences in growth rate, time to saturation, or saturation cell density [2]: No statistical differences

From patent US10676519B2, “Chimeric proteins and their use in identifying anti-deubiquitinase compounds” (The Florida State University Research Foundation, Inc., priority 2017, dated 2020)
